`COC(=O)c1ccc(OC)c(NC(=O)c2nnn(Cc3ccc(Cl)c(Cl)c3)c2C)c1` [Example 25, Methyl 3-[({1-[(3,4-dichlorophenyl)methyl]-5-methyl-1H-1,2,3-triazol-4-yl}carbonyl)amino]-4-(methyloxy)benzoate] gave a melting point of 203 °C. `Cc1c(C(=O)Nc2ccc(F)c(CO)c2)nnn1Cc1cc(Cl)cc(Cl)c1` [Example 59, 1-[(3,5-Dichlorophenyl)methyl]-N-[4-fluoro-3-(hydroxymethyl)phenyl]-5-methyl-1H-1,2,3-triazole-4-carboxamide] gave a melting point of 178 °C. `CC(=O)OCc1cccc(NC(=O)c2nnn(Cc3ccc(Cl)c(Cl)c3)c2C)c1` [Example 70, {3-[({1-[(3,4-Dichlorophenyl)methyl]-5-methyl-1H-1,2,3-triazol-4-yl}carbonyl)amino]phenyl}methyl acetate] showed a melting point greater than 70 °C. For `Cc1c(C(=O)Nc2ccc(OCCC(C)C)cc2)nnn1Cc1ccc(Br)cc1`, the melting point was 137 °C. `COC(=O)c1ccc(Cl)c(NC(=O)c2nnn(Cc3ccc(Cl)c(Cl)c3)c2C)c1` [Example 34, Methyl 4-chloro-3-[({1-[(3,4-dichlorophenyl)methyl]-5-methyl-1H-1,2,3-triazol-4-yl}carbonyl)amino]benzoate] gave a melting point of 206.4 °C. For `COC(=O)c1ccc(NC(=O)c2nnn(Cc3ccc(Cl)c(Cl)c3)c2C)cc1OC` [Example 28, Methyl 4-[({1-[(3,4-dichlorophenyl)methyl]-5-methyl-1H-1,2,3-triazol-4-yl}carbonyl)amino]-2-(methyloxy)benzoate], the melting point was 175.9 °C. `COC(=O)Cc1ccc(OC)c(NC(=O)c2nnn(Cc3ccc(Cl)c(Cl)c3)c2C)c1` [Example 35, Methyl [3-[({1-[(3,4-dichlorophenyl)methyl]-5-methyl-1H-1,2,3-triazol-4-yl}carbonyl)amino]-4-(methyloxy)phenyl]acetate] showed a melting point of 133 °C. `Cc1c(C(=O)Nc2ccc(CCO)cc2)nnn1Cc1ccc(Cl)c(Cl)c1` [Example 50, 1-[(3,4-Dichlorophenyl)methyl]-N-[4-(2-hydroxyethyl)phenyl]-5-methyl-1H-1,2,3-triazole-4-carboxamide] showed a melting point of 144 °C. In the case of `Cc1c(C(=O)Nc2ccc(OCCN(C)C)c(CO)c2)nnn1Cc1ccc(Cl)c(Cl)c1` [Example 77, 1-[(3,4-Dichlorophenyl)methyl]-N-[4-{[2-(dimethylamino)ethyl]oxy}-3-(hydroxymethyl)phenyl]-5-methyl-1H-1,2,3-triazole-4-carboxamide], the melting point is reported as 163.1 °C. `Cc1c(C(=O)Nc2ccc(C(=O)O)cc2)nnn1Cc1ccc(Cl)c(Cl)c1` [Example 66, 4-[({1-[(3,4-Dichlorophenyl)methyl]-5-methyl-1H-1,2,3-triazol-4-yl}carbonyl)amino]benzoic acid] gave a melting point greater than 260 °C. For `COc1ccc(C(=O)O)cc1NC(=O)c1nnn(Cc2ccc(Cl)c(Cl)c2)c1C` [Example 64, 3-[({1-[(3,4-Dichlorophenyl)methyl]-5-methyl-1H-1,2,3-triazol-4-yl}carbonyl)amino]-4-(methyloxy)benzoic acid], the melting point was 243.9 °C. Work on `Cc1c(C(=O)Nc2cc(CO)cc(CO)c2)nnn1Cc1cccc(F)c1` [Example 84, N-[3,5-bis(Hydroxymethyl)phenyl]-1-[(3-fluorophenyl)methyl]-5-methyl-1H-1,2,3-triazole-4-carboxamide] yielded a melting point of 173.1 °C. With `Cc1c(CO)cccc1NC(=O)c1nnn(Cc2cc(Cl)cc(Cl)c2)c1C` [Example 42, 1-[(3,5-Dichlorophenyl)methyl]-N-[3-(hydroxymethyl)-2-methylphenyl]-5-methyl-1H-1,2,3-triazole-4-carboxamide] the melting point was 185 °C. In the case of `COc1ccc(NC(=O)c2cn(Cc3ccc(F)cc3)nn2)cc1OC`, the melting point is reported as 197.8 °C. In the case of `CNC(=O)c1ccc(OC)c(NC(=O)c2nnn(Cc3ccc(Cl)c(Cl)c3)c2C)c1` [Example 69, 1-[(3,4-Dichlorophenyl)methyl]-5-methyl-N-[5-[(methylamino)carbonyl]-2-(methyloxy)phenyl]-1H-1,2,3-triazole-4-carboxamide], the melting point is reported as 222.2 °C. Compound `COC(=O)c1cc(NC(=O)c2nnn(Cc3ccc(Cl)c(Cl)c3)c2C)ccc1O` [Example 29, Methyl 5-[({1-[(3,4-dichlorophenyl)methyl]-5-methyl-1H-1,2,3-triazol-4-yl}carbonyl)amino]-2-hydroxybenzoate] has a melting point of 180 °C. `CNC(=O)c1cc(CO)cc(NC(=O)c2nnn(Cc3ccc(Cl)c(Cl)c3)c2C)c1` [Example 92, 1-[(3,4-Dichlorophenyl)methyl]-N-{3-(hydroxymethyl)-5-[(methylamino)carbonyl]phenyl}-5-methyl-1H-1,2,3-triazole-4-carboxamide] showed a melting point of 223 to 225 °C. In the case of `Cc1c(C(=O)Nc2ccc(OCc3ccccc3)cc2)nnn1Cc1ccc(Br)cc1` [Example 3, 1-[(4-Bromophenyl)methyl]-5-methyl-N-{4-[(phenylmethyl)oxy]phenyl}-1H-1,2,3-triazole-4-carboxamide], the melting point is reported as 168.7 °C. Compound `Cc1c(C(=O)Nc2ccc(OCCO)cc2)nnn1Cc1ccc(Cl)c(Cl)c1` [Example 74, 1-[(3,4-Dichlorophenyl)methyl]-N-{4-[(2-hydroxyethyl)oxy]phenyl}-5-methyl-1H-1,2,3-triazole-4-carboxamide] has a melting point of 140 °C. `COC(=O)c1ccc(NC(=O)c2nnn(Cc3ccc(Cl)c(Cl)c3)c2C)c(OC)c1` [Example 17, Methyl 4-[({1-[(3,4-dichlorophenyl)methyl]-5-methyl-1H-1,2,3-triazol-4-yl}carbonyl)amino]-3-(methyloxy)benzoate] showed a melting point of 212 °C. For `CNC(=O)c1ccc(NC(=O)c2nnn(Cc3ccc(Cl)c(Cl)c3)c2C)cc1` [Example 19, 1-[(3,4-Dichlorophenyl)methyl]-5-methyl-N-{4-[(methylamino)carbonyl]phenyl}-1H-1,2,3-triazole-4-carboxamide], the melting point was 183.7 °C. `Cc1c(C(=O)Nc2ccc(OCc3ccccc3)cc2)nnn1Cc1ccc(F)cc1` [Example 4, 1-[(4-Fluorophenyl)methyl]-5-methyl-N-{4-[(phenylmethyl)oxy]phenyl}-1H-1,2,3-triazole-4-carboxamide] gave a melting point of 139.4 °C. `COC(=O)c1ccc(OC)c(NC(=O)c2nnn(Cc3cc(Cl)cc(Cl)c3)c2C)c1` [Example 41, Methyl 3-[({1-[(3,5-dichlorophenyl)methyl]-5-methyl-1H-1,2,3-triazol-4-yl}carbonyl)amino]-4-(methyloxy)benzoate] showed a melting point of 213 °C. `Cc1c(C(=O)Nc2ccc(CO)cc2)nnn1Cc1ccc(F)cc1` [Example 90, 1-[(4-Fluorophenyl)methyl]-N-[4-(hydroxymethyl)phenyl]-5-methyl-1H-1,2,3-triazole-4-carboxamide] gave a melting point of 145.6 °C. `COc1cc(CO)ccc1NC(=O)c1nnn(Cc2ccc(Cl)c(Cl)c2)c1C` [Example 49, 1-[(3,4-Dichlorophenyl)methyl]-N-[4-(hydroxymethyl)-2-(methyloxy)phenyl]-5-methyl-1H-1,2,3-triazole-4-carboxamide] showed a melting point of 136 °C. Compound `Cc1c(C(=O)Nc2ccc(CO)c(CO)c2)nnn1Cc1ccc(Cl)c(Cl)c1` [Example 58, N-[3,4-bis(Hydroxymethyl)phenyl]-1-[(3,4-dichlorophenyl)methyl]-5-methyl-1H-1,2,3-triazole-4-carboxamide] has a melting point of 203 °C. In the case of `Cc1c(C(=O)Nc2ccc(CO)cc2)nnn1Cc1ccccc1` [Example 38, N-[4-(Hydroxymethyl)phenyl]-5-methyl-1-(phenylmethyl)-1H-1,2,3-triazole-4-carboxamide], the melting point is reported as 149.1 °C. `CC(=O)Nc1cccc(NC(=O)c2nnn(Cc3ccc(Cl)c(Cl)c3)c2C)c1` [Example 21, N-[3-(Acetylamino)phenyl]-1-[(3,4-dichlorophenyl)methyl]-5-methyl-1H-1,2,3-triazole-4-carboxamide] gave a melting point of 203.4 °C. With `CCOC(=O)c1ccc(NC(=O)c2nnn(Cc3ccc(Cl)c(Cl)c3)c2C)cc1` [Example 48, Ethyl 4-[({1-[(3,4-dichlorophenyl)methyl]-5-methyl-1H-1,2,3-triazol-4-yl}carbonyl)amino]benzoate] the melting point was 167 °C. `Cc1c(C(=O)Nc2cccc(CO)c2)nnn1Cc1cccc(F)c1` [Example 89, 1-[(3-Fluorophenyl)methyl]-N-[3-(hydroxymethyl)phenyl]-5-methyl-1H-1,2,3-triazole-4-carboxamide] showed a melting point of 124.7 °C. Work on `Cc1c(C(=O)Nc2cc(CO)cc(CO)c2)nnn1Cc1cccc(Cl)c1` [Example 61, -[3,5-bis(Hydroxymethyl)phenyl]-1-[(3-chlorophenyl)methyl]-5-methyl-1H-1,2,3-triazole-4-carboxamide] yielded a melting point of 192.7 °C. For `Cc1c(C(=O)Nc2cccc(CO)c2)nnn1Cc1cc(Cl)cc(Cl)c1` [Example 40, 1-[(3,5-Dichlorophenyl)methyl]-N-[3-(hydroxymethyl)phenyl]-5-methyl-1H-1,2,3-triazole-4-carboxamide], the melting point was 159 °C. `Cc1c(C(=O)Nc2cc(CO)cc(CO)c2)nnn1Cc1ccccc1` [Example 60, N-[3,5-bis(Hydroxymethyl)phenyl]-5-methyl-1-(phenylmethyl)-1H-1,2,3-triazole-4-carboxamide] showed a melting point of 148.2 °C. With `Cc1c(C(=O)Nc2ccc(CO)c(CO)c2)nnn1Cc1ccc(F)cc1` [Example 83, N-[3,4-bis(Hydroxymethyl)phenyl]-1-[(4-fluorophenyl)methyl]-5-methyl-1H-1,2,3-triazole-4-carboxamide] the melting point was 175.5 °C. Compound `CC(=O)NCc1cccc(NC(=O)c2nnn(Cc3ccc(Cl)c(Cl)c3)c2C)c1` [Example 43, N-{3-[(Acetylamino)methyl]phenyl}-1-[(3,4-dichlorophenyl)methyl]-5-methyl-1H-1,2,3-triazole-4-carboxamide] has a melting point of 188.4 °C. In the case of `Cc1c(C(=O)Nc2ccc(CO)cc2)nnn1Cc1cccc(Cl)c1` [Example 88, 1-[(3-Chlorophenyl)methyl]-N-[4-(hydroxymethyl)phenyl]-5-methyl-1H-1,2,3-triazole-4-carboxamide], the melting point is reported as 136.2 °C. `Cc1c(C(=O)Nc2cccc(OCCO)c2)nnn1Cc1ccc(Cl)c(Cl)c1` [Example 78, 1-[(3,4-Dichlorophenyl)methyl]-N-{3-[(2-hydroxyethyl)oxy]phenyl}-5-methyl-1H-1,2,3-triazole-4-carboxamide] gave a melting point of 144.9 °C.

From US8486977B2, “1,2,3-triazole derivatives for use as stearoyl-CoA desaturase inhibitors” (GlaxoSmithKline LLC, priority 2007, dated 2013)
